# System: NCI-H211 complex spheroid viability
# Assay: Anticancer human tumor NCI-H211 cell line growth inhibition [LSD1];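 note: luminescent viability read after seven days of drug exposure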;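 for viability, T/C: 100% = DMSO vehicle control viability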
# Conditions: for IC50: curve of first compound; for viability, T/C: stronger effect = lower value
# Description: Multicellular complex tumor spheroid response to LSD1 Inhibitor Iadademstat in combination with a variety of drugs and investigational agents in selected tumor cell lines
# The current study was undertaken to assess response to LSD1 inhibitors in combination with standard-of-care drugs and investigational agents in solid tumor complex spheroid models as well as in the K-562 leukemia. Complex spheroids include a stromal component modeled by human endothelial cells (HUVEC) and fibroblasts modeled by human mesenchymal stem cells (MSCs). The concentration ranges selected for each drug and investigational agent were based upon clinically achievable concentrations if the clinical Cmax of the agent was known.
# Compounds. The drugs and investigational agents used in this study are listed on Table 1. All of the agents used, including staurosporine (NSC755774) and gemcitabine (NSC613327), were obtained from the Developmental Therapeutics Program, NCI. FDA-approved anticancer drugs are available from the NCI at http://dtp.nci.nih.gov/branches/dscb/oncology_drugset_explanation.html. Drugs and investigational agents were >95% pure by proton nuclear magnetic resonance (NMR) and liquid chromatography/mass spectrometry (LC/MS). Stock solutions were prepared at 400x in DMSO, stored at -70 degrees C, and diluted in fresh medium prior to their use. The final concentration of DMSO in cell culture wells never exceeded 0.25% (v/v). The FDA-approved anticancer drug set is available from the Developmental Therapeutics Program at https://dtp.cancer.gov/organization/dscb/obtaining/available_plates.htm. All drugs and investigational agents were tested over a range starting from a high concentration at or near the clinical Cmax and decreasing in half-log increments. If the clinical Cmax for an agent had not been determined, the highest concentration tested was 10 microM.
# Cell Lines. The patient-derived cancer cell (PDC) lines: 292921-168-R-J2-PDC, K24384-001-R-PDC, and 521955-158-R2-J5-PDC pancreatic carcinomas, 556581-035-R-J1 ovarian carcinoma, 324938-238-R-J1-PDC, 855422-203-R-J1-PDC and 883617-216-R-J1-PDC urothelial bladder carcinomas, 743489-274-T-PDC renal cell carcinoma, 138582-R-J1 Merkel cell tumor, K60290-347-R-J1 and K57222-313-R-J1-PDC glioblastomas, 653999-131-R-J2-PDC, LG0703-F948-PDC, and 349418-098-R-PDC non-small cell lung carcinomas, 885512-296-R-J2-PDC, 171881-019-R-J1-PDC breast carcinomas and 186277-243-T-J2-PDC and 233499-124-R-J2-PDC colon carcinomas were obtained from the NCI Patient-Derived Models Repository (PDMR, https://pdmr.cancer.gov). The established cell lines NCI/ADR-RES (RRID:CVCL_14520 and OVCAR-5 (RRID:CVCL_1628) ovarian carcinomas, 786-O (RRID:CVCL_1051) and A498 (RRID:CVCL_A498) renal cell carcinoma, NCI-H211 (ATCC, cat. CRL-5824; RRID:CVCL_1529), NCI-H196 (ATCC, cat. CRL-5823, RRID:CVCL_1509), SW 1271 (ATCC, cat. CRL-2177, RRID:CVCL_1716) and NCI-H1876 (ATCC, cat. CRL-5902, RRID:CVCL_1503) small cell lung carcinomas, MDA-MB-231 (RRID:CVCL_0062) and MDA-MB-468 (RRID:CVCL_0419)breast carcinomas (10-12). Pooled donor human umbilical vein endothelial cells (HUVEC, Lonza, cat. CC-2519) and human mesenchymal stem cells (hMSC, Lonza, cat. PT-2501) were purchased from Lonza (Walkersville, MD).
# Cell Culture. All cells were maintained in an incubator at 37 degrees C and 5% CO2 with 95% humidity. The PDC lines were cultured according to standard operating procedures established by the NCI PDMR (https://pdmr.cancer.gov). Briefly all PDCs were thawed and cultured in Matrigel-coated flasks prepared with a working solution of 1X Ham's F-12 nutrient mix, without supplementation (Invitrogen, Waltham, MA, cat. 11765054), 100 U/mL penicillin-streptomycin (Invitrogen, cat. 15140122), and 2.5% Matrigel (Corning Inc., Corning, NY, cat. 354248) for the first three passages. […]
# [1] = second compound 0.1 µM, first compound 0.00316 µM
# [2] = second compound 0.1 µM, first compound 0.01 µM
# [3] = second compound 0.1 µM, first compound 0.0316 µM
# [4] = second compound 0.1 µM, first compound 0.1 µM
# [5] = second compound 0.316 µM, first compound 0.00316 µM
# [6] = second compound 0.316 µM, first compound 0.01 µM
# [7] = second compound 0.316 µM, first compound 0.0316 µM
# [8] = second compound 0.316 µM, first compound 0.1 µM
# [9] = second compound 1 µM, first compound 0.00316 µM
# [10] = second compound 1 µM, first compound 0.01 µM
# [11] = second compound 1 µM, first compound 0.0316 µM
# [12] = second compound 1 µM, first compound 0.1 µM
# [13] = second compound 3.16 µM, first compound 0.00316 µM
# [14] = second compound 3.16 µM, first compound 0.01 µM
# [15] = second compound 3.16 µM, first compound 0.0316 µM
# [16] = second compound 3.16 µM, first compound 0.1 µM
# [17] = second compound 10 µM, first compound 0.00316 µM
# [18] = second compound 10 µM, first compound 0.01 µM
# [19] = second compound 10 µM, first compound 0.0316 µM
# [20] = second compound 10 µM, first compound 0.1 µM
structure (smiles),measurement,setting,value
CC[C@@]1(O)C(=O)OCc2c1cc1n(c2=O)Cc2cc3c(CN(C)C)c(O)ccc3nc2-1 + NC1CC1c1ccc(-c2cccc(O)c2)cc1,IC50,second compound 0.1 µM,0.472 nM
same,IC50,second compound 0.316 µM,0.4 nM
same,IC50,second compound 1 µM,0.333 nM
same,IC50,second compound 3.16 µM,< 0.316 nM
same,IC50,second compound 10 µM,< 0.316 nM
same,"viability, T/C","second compound 0.1 µM, first compound 0.000316 µM",69.9%
same,"viability, T/C","second compound 0.1 µM, first compound 0.001 µM",12.8%
same,"viability, T/C",[1],4.7%
same,"viability, T/C",[2],4.95%
same,"viability, T/C",[3],3.81%
same,"viability, T/C",[4],2.69%
same,"viability, T/C","second compound 0.316 µM, first compound 0.000316 µM",60%
same,"viability, T/C","second compound 0.316 µM, first compound 0.001 µM",12%
same,"viability, T/C",[5],6.18%
same,"viability, T/C",[6],4.37%
same,"viability, T/C",[7],4.53%
same,"viability, T/C",[8],2.25%
same,"viability, T/C","second compound 1 µM, first compound 0.000316 µM",51.9%
same,"viability, T/C","second compound 1 µM, first compound 0.001 µM",11.9%
same,"viability, T/C",[9],5.4%
same,"viability, T/C",[10],3.69%
same,"viability, T/C",[11],4.13%
same,"viability, T/C",[12],3.19%
same,"viability, T/C","second compound 3.16 µM, first compound 0.000316 µM",38.7%
same,"viability, T/C","second compound 3.16 µM, first compound 0.001 µM",11.8%
same,"viability, T/C",[13],5.33%
same,"viability, T/C",[14],5.16%
same,"viability, T/C",[15],5.02%
same,"viability, T/C",[16],2.67%
same,"viability, T/C","second compound 10 µM, first compound 0.000316 µM",44.5%
same,"viability, T/C","second compound 10 µM, first compound 0.001 µM",15.3%
same,"viability, T/C",[17],4.98%
same,"viability, T/C",[18],5.88%
same,"viability, T/C",[19],5.04%
same,"viability, T/C",[20],2.36%
COc1cc(C2c3cc4c(cc3C(OC3OC5COC(C)OC5C(O)C3O)C3COC(=O)C23)OCO4)cc(OC)c1O (stereo not given) + NC1CC1c1ccc(-c2cccc(O)c2)cc1,IC50,second compound 0.1 µM,< 9.49 nM
same,IC50,second compound 0.316 µM,< 9.49 nM
same,IC50,second compound 1 µM,< 9.49 nM
same,IC50,second compound 3.16 µM,< 9.49 nM
same,IC50,second compound 10 µM,< 9.49 nM
same,"viability, T/C","second compound 0.1 µM, first compound 0.00949 µM",43.9%
same,"viability, T/C","second compound 0.1 µM, first compound 0.03 µM",11.5%
same,"viability, T/C","second compound 0.1 µM, first compound 0.0949 µM",4.34%
same,"viability, T/C","second compound 0.1 µM, first compound 0.3 µM",5.07%
same,"viability, T/C","second compound 0.1 µM, first compound 0.949 µM",5.27%
same,"viability, T/C","second compound 0.1 µM, first compound 3 µM",4.24%
same,"viability, T/C","second compound 0.316 µM, first compound 0.00949 µM",38.7%
same,"viability, T/C","second compound 0.316 µM, first compound 0.03 µM",11.5%
same,"viability, T/C","second compound 0.316 µM, first compound 0.0949 µM",4.54%
same,"viability, T/C","second compound 0.316 µM, first compound 0.3 µM",4.97%
same,"viability, T/C","second compound 0.316 µM, first compound 0.949 µM",4.77%
same,"viability, T/C","second compound 0.316 µM, first compound 3 µM",4.76%
same,"viability, T/C","second compound 1 µM, first compound 0.00949 µM",35.6%
same,"viability, T/C","second compound 1 µM, first compound 0.03 µM",10.3%
same,"viability, T/C","second compound 1 µM, first compound 0.0949 µM",6.12%
same,"viability, T/C","second compound 1 µM, first compound 0.3 µM",4.33%
same,"viability, T/C","second compound 1 µM, first compound 0.949 µM",3.45%
same,"viability, T/C","second compound 1 µM, first compound 3 µM",4.65%
same,"viability, T/C","second compound 3.16 µM, first compound 0.00949 µM",29.2%
same,"viability, T/C","second compound 3.16 µM, first compound 0.03 µM",7.68%
same,"viability, T/C","second compound 3.16 µM, first compound 0.0949 µM",5.57%
same,"viability, T/C","second compound 3.16 µM, first compound 0.3 µM",5.22%
same,"viability, T/C","second compound 3.16 µM, first compound 0.949 µM",5.76%
same,"viability, T/C","second compound 3.16 µM, first compound 3 µM",3.92%
same,"viability, T/C","second compound 10 µM, first compound 0.00949 µM",24.8%
same,"viability, T/C","second compound 10 µM, first compound 0.03 µM",9.09%
same,"viability, T/C","second compound 10 µM, first compound 0.0949 µM",5.19%
same,"viability, T/C","second compound 10 µM, first compound 0.3 µM",4.7%
same,"viability, T/C","second compound 10 µM, first compound 0.949 µM",5%
same,"viability, T/C","second compound 10 µM, first compound 3 µM",4.52%
Nc1ncn(C2CC(O)C(CO)O2)c(=O)n1 (stereo not given) + NC1CC1c1ccc(-c2cccc(O)c2)cc1,IC50,second compound 0.1 µM,< 3.16 nM
same,IC50,second compound 0.316 µM,< 3.16 nM
same,IC50,second compound 1 µM,< 3.16 nM
same,IC50,second compound 3.16 µM,< 3.16 nM
same,IC50,second compound 10 µM,< 3.16 nM
same,"viability, T/C",[1],23.1%
same,"viability, T/C",[2],11.9%
same,"viability, T/C",[3],5.65%
same,"viability, T/C",[4],3.94%
same,"viability, T/C","second compound 0.1 µM, first compound 0.316 µM",3.2%
same,"viability, T/C","second compound 0.1 µM, first compound 1 µM",4.03%
same,"viability, T/C",[5],18.7%
same,"viability, T/C",[6],9.82%
same,"viability, T/C",[7],6.26%
same,"viability, T/C",[8],4.33%
same,"viability, T/C","second compound 0.316 µM, first compound 0.316 µM",3.7%
same,"viability, T/C","second compound 0.316 µM, first compound 1 µM",4.51%
same,"viability, T/C",[9],17.9%
same,"viability, T/C",[10],10.6%
same,"viability, T/C",[11],5.51%
same,"viability, T/C",[12],4%
same,"viability, T/C","second compound 1 µM, first compound 0.316 µM",4.16%
same,"viability, T/C","second compound 1 µM, first compound 1 µM",4.12%
same,"viability, T/C",[13],24.6%
same,"viability, T/C",[14],13.7%
same,"viability, T/C",[15],6.51%
same,"viability, T/C",[16],4.45%
same,"viability, T/C","second compound 3.16 µM, first compound 0.316 µM",3.03%
same,"viability, T/C","second compound 3.16 µM, first compound 1 µM",4.93%
same,"viability, T/C",[17],22.7%
same,"viability, T/C",[18],17.1%
same,"viability, T/C",[19],9.21%
same,"viability, T/C",[20],5.28%
same,"viability, T/C","second compound 10 µM, first compound 0.316 µM",3.35%
same,"viability, T/C","second compound 10 µM, first compound 1 µM",3.79%
